Test results taken from patent publication US10428083B2, “Heterocyclylmethyl-thienouracile as antagonists of the adenosine-A2B-receptor” (BAYER PHARMA AKTIENGESELLSCHAFT, priority 2015, dated 2019).
pIC50: −log10 of the molar value.

What follows are compounds tested against human adenosine A2b receptor (Homo sapiens (Human), UniProt P29275) (assay: Cellular in vitro reporter gene test for A2b receptor activity (CHO-K1, CRE-luciferase, NECA stimulation)). Conditions: recombinant CHO-K1 cell line, CRE-luciferase reporter, antagonism of EC50 concentration of NECA; in some cases means of several determinations, rounded to two significant figures; read-out: A2b receptor IC50.
Assay type: cell-based
Method in brief: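 CHO-K1 cells with CRE-driven luciferase; antagonists co-incubated with NECA at its EC50, determined in a pre-experiment on each test day. Luciferase read by luminescence 3 h after NECA addition.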

human adenosine A2b receptor, sequence (P29275 whole entry): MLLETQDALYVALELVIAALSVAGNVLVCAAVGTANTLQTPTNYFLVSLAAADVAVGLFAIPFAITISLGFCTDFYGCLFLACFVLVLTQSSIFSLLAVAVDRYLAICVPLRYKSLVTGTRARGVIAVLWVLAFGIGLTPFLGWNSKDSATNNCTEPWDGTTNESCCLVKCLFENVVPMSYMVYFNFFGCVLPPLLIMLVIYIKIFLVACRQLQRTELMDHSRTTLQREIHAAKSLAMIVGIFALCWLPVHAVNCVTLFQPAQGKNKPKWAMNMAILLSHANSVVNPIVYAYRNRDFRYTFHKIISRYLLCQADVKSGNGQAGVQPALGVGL

| SMILES | pIC50 |
| --- | --- |
| CCn1c(=O)c2c(C)c(Cn3nc[nH]c3=O)sc2n(CCCOC)c1=O [Example 354, 3-Ethyl-1-(3-methoxypropyl)-5-methyl-6-[(5-oxo-4,5-dihydro-1H-1,2,4-triazol-1-yl)methyl]thieno[2,3-d]pyrimidine-2,4(1H,3H)-dione] | 6.92 |
| Cc1c(CN2CCNC(=O)C2=O)sc2c1c(=O)n(C(C)C)c(=O)n2CC1CCO1 (racemic) [Example 397, 6-[(2,3-Dioxopiperazin-1-yl)methyl]-3-isopropyl-5-methyl-1-(oxetan-2-ylmethyl)thieno[2,3-d]pyrimidine-2,4(1H,3H)-dione] | 6.92 |
| C=CCn1cnn(Cc2sc3c(c2C)c(=O)n(CC)c(=O)n3CF)c1=O [Example 349, 6-[(4-Allyl-5-oxo-4,5-dihydro-1H-1,2,4-triazol-1-yl)methyl]-3-ethyl-1-(fluoromethyl)-5-methylthieno[2,3-d]pyrimidine-2,4(1H,3H)-dione] | 6.20 |
| COCCn1c(=O)c2c(C)c(CN3CCNC3=NC#N)sc2n(CC2CCO2)c1=O (single isomer, unassigned) [Example 366, [1-{[3-Methoxyethyl-5-methyl-1-(oxetan-2-ylmethyl)-2,4-dioxo-1,2,3,4-tetrahydrothieno[2,3-d]pyrimidin-6-yl]methyl}imidazolidin-2-ylidene]cyanamide] | 7.40 |
| COCCn1c(=O)n(CC(C)(C)OC)c(=O)c2c(C)c(CN3CCNC(=O)C3=O)sc21 [Example 281, 6-[(2,3-Dioxopiperazin-1-yl)methyl]-1-(2-methoxyethyl)-3-(2-methoxy-2-methylpropyl)-5-methylthieno[2,3-d]pyrimidine-2,4(1H,3H)-dione] | 7.34 |
| CCn1c(=O)c2c(C)c(Cn3nc[nH]c3=O)sc2n(CC2CCCO2)c1=O (racemic) [Example 419, 3-Ethyl-5-methyl-6-[(5-oxo-4,5-dihydro-1H-1,2,4-triazol-1-yl)methyl]-1-(tetrahydrofuran-2-ylmethyl)thieno[2,3-d]pyrimidine-2,4(1H,3H)-dione] | 6.89 |
| COCCn1c(=O)n(C(C)C(F)(F)F)c(=O)c2c(C)c(CN3CCNC3=O)sc21 (single isomer, unassigned) [Example 498, 1-(2-Methoxyethyl)-5-methyl-6-[(2-oxoimidazolidin-1-yl)methyl]-3-(1,1,1-trifluoropropan-2-yl)thieno[2,3-d]pyrimidine-2,4(1H,3H)-dione] | 7.10 |
| CCn1c(=O)c2c(C)c(Cn3nc[nH]c3=O)sc2n(CF)c1=O [Example 352, 3-Ethyl-1-(fluoromethyl)-5-methyl-6-[(5-oxo-4,5-dihydro-1H-1,2,4-triazol-1-yl)methyl]thieno[2,3-d]pyrimidine-2,4(1H,3H)-dione] | 7.32 |
| CCn1c(=O)c2c(C)c(CN3CC(N)CC3=O)sc2n(CCC(F)(F)F)c1=O (racemic) [Example 9, 6-[(4-Amino-2-oxopyrrolidin-1-yl)methyl]-3-ethyl-5-methyl-1-(3,3,3-trifluoropropyl)thieno[2,3-d]pyrimidine-2,4(1H,3H)-dione (racemate)] | 7.01 |
| CCn1c(=O)c2c(C)c(CN3CCNC3=S)sc2n(CCS(C)(=O)=O)c1=O [Example 295, 3-Ethyl-5-methyl-1-[2-(methylsulphonyl)ethyl]-6-[(2-thioxoimidazolidin-1-yl)methyl]thieno[2,3-d]pyrimidine-2,4(1H,3H)-dione] | 6.66 |
| CCn1c(=O)c2c(C)c(CN3CCNC3=O)sc2n(CCOC(C)C)c1=O [Example 61, 3-Ethyl-1-(2-isopropoxyethyl)-5-methyl-6-[(2-oxoimidazolidin-1-yl)methyl]thieno[2,3-d]pyrimidine-2,4(1H,3H)-dione] | 7.28 |

Now those with a higher pIC50, led by results:

| pIC50 | SMILES |
| --- | --- |
| 7.85 | CCn1c(=O)c2c(C)c(Cn3cc[nH]c3=O)sc2n(CC2CCCO2)c1=O (single isomer, unassigned) [Example 243, 3-Ethyl-5-methyl-6-[(2-oxo-2,3-dihydro-1H-imidazol-1-yl)methyl]-1-(tetrahydrofuran-2-ylmethyl)thieno[2,3-d]pyrimidine-2,4(1H,3H)-dione] |
| 8.33 | Cc1c(CN2CCNC2=O)sc2c1c(=O)n(C(C)C)c(=O)n2CCCF [Example 314, 1-(3-Fluoropropyl)-3-isopropyl-5-methyl-6-[(2-oxoimidazolidin-1-yl)methyl]thieno[2,3-d]pyrimidine-2,4(1H,3H)-dione] |
| 7.70 | COC(C)Cn1c(=O)c2c(C)c(CN3CCNC(=O)C3=O)sc2n(CCC(F)(F)F)c1=O (single isomer, unassigned) [Example 494, 6-[(2,3-Dioxopiperazin-1-yl)methyl]-3-(2-methoxypropyl)-5-methyl-1-(3,3,3-trifluoropropyl)thieno[2,3-d]pyrimidine-2,4(1H,3H)-dione] |
| 8.72 | CCn1c(=O)c2c(C)c(CN3CCNC3=S)sc2n(CCC(F)(F)F)c1=O [Example 28, 3-Ethyl-5-methyl-6-[(2-thioxoimidazolidin-1-yl)methyl]-1-(3,3,3-trifluoropropyl)thieno[2,3-d]pyrimidine-2,4(1H,3H)-dione] |
| 7.74 | COCCn1c(=O)n(C(C)C(F)(F)F)c(=O)c2c(C)c(CN3CCNC3=NC(=O)OC)sc21 (racemic) [Example 471, Methyl [1-{[1-(2-methoxyethyl)-5-methyl-2,4-dioxo-3-(1,1,1-trifluoropropan-2-yl)-1,2,3,4-tetrahydrothieno[2,3-d]pyrimidin-6-yl]methyl}imidazolidin-2-ylidene]carbamate] |
| 7.72 | CCCN1CCN(Cc2sc3c(c2C)c(=O)n(CCc2ccccc2)c(=O)n3CCOC)C1=O [Example 240, 1-(2-Methoxyethyl)-5-methyl-6-[(2-oxo-3-propylimidazolidin-1-yl)methyl]-3-(2-phenylethyl)thieno[2,3-d]pyrimidine-2,4(1H,3H)-dione] |
| 7.92 | Cc1c(CN2CCNC2=O)sc2c1c(=O)n(CC(F)(F)F)c(=O)n2CC1CCCO1 (racemic) [Example 209, 5-Methyl-6-[(2-oxoimidazolidin-1-yl)methyl]-1-(tetrahydrofuran-2-ylmethyl)-3-(2,2,2-trifluoroethyl)thieno[2,3-d]pyrimidine-2,4(1H,3H)-dione] |
| 8.00 | COCCn1c(=O)c2c(C)c(CN3CCNC(=O)C3=O)sc2n(CCC(F)(F)F)c1=O [Example 276, 6-[(2,3-Dioxopiperazin-1-yl)methyl]-3-(2-methoxyethyl)-5-methyl-1-(3,3,3-trifluoropropyl)thieno[2,3-d]pyrimidine-2,4(1H,3H)-dione] |
| 8.18 | CCn1c(=O)c2c(C)c(CN3CCNC3=O)sc2n(CCCCF)c1=O [Example 52, 3-Ethyl-1-(4-fluorobutyl)-5-methyl-6-[(2-oxoimidazolidin-1-yl)methyl]thieno[2,3-d]pyrimidine-2,4(1H,3H)-dione] |
| 7.85 | CCn1c(=O)c2c(C)c(CN3CCNC3=O)sc2n(CC(F)(F)F)c1=O [Example 47, 3-Ethyl-5-methyl-6-[(2-oxoimidazolidin-1-yl)methyl]-1-(2,2,2-trifluoroethyl)thieno[2,3-d]pyrimidine-2,4(1H,3H)-dione] |
| 7.92 | COC(=O)N=C1NCCN1Cc1sc2c(c1C)c(=O)n(C(C)C)c(=O)n2CC1CCCO1 (racemic) [Example 380, Methyl [1-{[3-isopropyl-5-methyl-2,4-dioxo-1-(tetrahydrofuran-2-ylmethyl)-1,2,3,4-tetrahydrothieno[2,3-d]pyrimidin-6-yl]methyl}imidazolidin-2-ylidene]carbamate] |
